Reference: patent EP2787958B1, “CHELIDONIUM MAJUS EXTRACTS AND THEIR USE IN THE TREATMENT OF SKIN DISORDERS AND PROMOTION OF SKIN REGENERATION” (priority 2011, dated 2013)
Read-outs that look alike come from different tables or passages of the source.

Experiments:
[1] = tested on: HDF cells; assay: Evaluation of cell proliferation (counting of Sirius Red stained cells in photographs); settings: 24 hours
[2] = tested on: collagen produced by HDF cells; assay: Quantity of collagen produced by the cells (elution of Sirius Red)
[3] = tested on: Human dermal fibroblasts (HDF); assay: Mitochondrial dehydrogenase activity (WST-1 formazan assay) in HDF cells; settings: for Revitalizing agent: 24 hours; for activity at 1 µM / activity at 10 µM: Homo sapiens, Fibroblast, read-out: % mitochondrial dehydrogenase activity ± SD; for mitochondrial dehydrogenase activity (effect in words): fibroblasts
[4] = tested on: interleukin 1β (IL-1β); assay: Inflammatory cytokines in cell supernatant (Mosaic ELISA microarray): IL-1β; format: cell-based, Human; settings: for IL-1β ng/(ml* No. of cells from photo) ± SD: 24 hours; for IL-1β production (effect in words): 1-10 µM
Procedure: (§1) The inflammatory cytokines, CD40 ligand (CD40L), interferon γ (INF-γ), interleukin 1α (IL-1α), interleukin 1β (IL-1β), interleukin 6 (IL-6), interleukin 8 (IL-8), interleukin 17 (IL-17) and tumour necrosis factor α (TNF-α) were determined qualitatively and quantitatively. Each measurement was performed in duplicate using a Mosaic™ ELISA protein microarray assay system from R&D System in accordance with the supplier's instructions. Furthermore, with the aim of obtaining a correlation model between light signal intensity and cytokine concentration, a calibration curve using 6 concentrations was performed for each of them. Analysis of the data was performed using the dedicated Q-View™ Imager software package from Quansys Biosciences

[5] = tested on: interleukin 6 (IL-6); assay: Inflammatory cytokines in cell supernatant (Mosaic ELISA microarray): IL-6; format: cell-based, Human; settings: for IL-6 ng/(ml* No. of cells from photo) ± SD: 24 hours; for IL-6 production (effect in words): 1-10 µM
Procedure: as §1

[6] = tested on: HDF cells; assay: Summary of uses and toxic effects deduced from the cell assays (Table 1); format: cell-based, Human; settings: for Anti-fibrotic (prevention of scar formation, also from acne) / Cytoprotective (antioxidant, anti-inflammatory and anti-ageing; useful also in the treatment of acne) / Cytotoxic / Irritant / Wound-healing: 24 hours
Procedure: Antiradical (skin protective): this is deduced from the free radical scavenger effects.
Revitalizing: this is deduced from the increased mitochondrial dehydrogenase effect.
Cytoprotective, with regard to oxidative damage (antioxidant, anti-inflammatory and anti-ageing): this is deduced from antagonising the stimulation of IL-1β and/or IL-6 induced by 100 µM H2O2 and from the absence of changes in cell morphology similar to the ones due to cell senescence.
Wound healing: this is deduced from the effect of inhibiting the production of IL-1β and by the effect of stimulating cell proliferation under standard growth conditions.
Cytotoxicity: this is deduced from the effect of reducing mitochondrial dehydrogenase activity or from the presence of morphologies characteristic of cell senescence.
Irritation: this is deduced from the effect of increased production of IL-6 and/or IL-1β under standard growth conditions.
Said uses in the fields of medicine and cosmetics or the toxic effects of the substances of the invention at a given dosage, for 24 hours, are summarized in Table 1 below.

[7] = Anti-radical activity (decay of the DPPH radical); format: biochemical; settings: for Anti-radical (skin protective): 24 hours
Procedure: With regard to assays aimed at evaluating anti-radical activity, a chemical test was used where the decay of the diphenylpicrylhydrazyl (DPPH) radical is assessed in the absence or in the presence of the test substances. Indeed, the DPPH radical is used to test the ability of substances to act as free radical scavengers. DPPH in solution has a purple colour with a maximum absorbance peak at 517 nm which changes to yellow-colourless when this radical extracts a hydrogen atom from a radical scavenger to give rise to the reduced form DPPH-H. The assay has been conducted in quadruplicate in 96 well microplates (SARSTEDT Tissue Culture Plate 96-well flat bottom cell+). 50 µl of an ethanol solution of the test substance at 2X concentration and then 50 µl of a 200 µM solution of DPPH (MW 168,18, Aldrich 2,2-di(4-tert-octylphenyl)-1-picrylhydrazyl, free radical Lot# MKBF7574V Cat N° 257621-100 mg) have been added to each well of the microplate. A positive control consisting of 0.1 mM vitamin C and a negative control consisting of ethanol alone were included in each microplate. After 30 minutes from the addition of DPPH, photographs of the plates were taken (Canon PowerShot A610 5.0 Mpixels) and read spectrophotometrically at 530 nm.
Based on the analysis of the results reported in Table 9, some substances were selected for further characterisation of their anti-radical activity. For the selected substances, dose-activity curves were obtained and the IC50 value were computed using a non-linear regression model with the Hill equation at variable slope. Such substances had been selected due to both their anti-radical potential and the easiness of their isolation/production. The selection of substances was made in view of cosmetics applications. Moreover their activity on human dermal fibroblasts (HDF) is expected to be useful also for the development of dermatological medications. The selected substances are discussed below.

[8] = Dose 1 µm (coptisine: 1 pm [sic])

c1c2c(cc3c1OCO3)-c1cc3ccc4c(c3c[n+]1CC2)OCO4 [coptisine]
No. of cells from photo ± SD ([1]; 1 µM, 34 ng/ml TGF-β1): 111±18
No. of cells from photo ± SD ([1]; 1 µM, 100 µM H2O2): 143±17
No. of cells from photo ± SD ([1]; 1 µM, Standard conditions): 144±12
No. of cells from photo ± SD ([1]; 10 µM, 34 ng/ml TGF-β1): 86±6
No. of cells from photo ± SD ([1]; 10 µM, 100 µM H2O2): 114±0
No. of cells from photo ± SD ([1]; 10 µM, Standard conditions): 129±27
collagen production (effect in words) ([2]; 1-10 µM (1 µM and 10 µM), 34 ng/ml TGF-β1): stimulates collagen production in a dose-dependent manner
collagen production (effect in words) ([2]; 1-10 µM (1 µM and 10 µM), 100 µM H2O2): stimulates collagen production in a dose-dependent manner
collagen production (effect in words) ([2]; 1-10 µM, standard conditions): stimulates collagen production in a dose-dependent manner
concentrations below which no significant effects on mitochondrial dehydrogenase activity are shown [3]: below 1 µM
Revitalizing agent [3, 8]: No
Revitalizing agent ([3]; Dose 10 µm): No
activity at 1 µM ([3]; 24 h): 84.5 ± 3.17%
activity at 10 µM ([3]; 24 h): 62.3 ± 11.8%
activity at 1 µM ([3]; 42 h): 90.1 ± 2.3%
activity at 10 µM ([3]; 42 h): 139 ± 5.34%
mitochondrial dehydrogenase activity (effect in words) ([3]; low dose for a prolonged period of time, to a lesser extent): stimulatory effects
mitochondrial dehydrogenase activity (effect in words) ([3]; overall): mostly inhibitory effects
IL-1β ng/(ml* No. of cells from photo) ± SD ([4]; 1 µM, 34 ng/ml TGF-β1): 207±8 ng/(ml* No. of cells from photo)
IL-1β ng/(ml* No. of cells from photo) ± SD ([4]; 1 µM, 100 µM H2O2): 174±20 ng/(ml* No. of cells from photo)
IL-1β ng/(ml* No. of cells from photo) ± SD ([4]; 1 µM, Standard conditions): 137±12 ng/(ml* No. of cells from photo)
IL-1β ng/(ml* No. of cells from photo) ± SD ([4]; 10 µM, 34 ng/ml TGF-β1): 267±15 ng/(ml* No. of cells from photo)
IL-1β ng/(ml* No. of cells from photo) ± SD ([4]; 10 µM, 100 µM H2O2): 236±8 ng/(ml* No. of cells from photo)
IL-1β ng/(ml* No. of cells from photo) ± SD ([4]; 10 µM, Standard conditions): 155±7 ng/(ml* No. of cells from photo)
IL-1β production (effect in words) ([4]; 34 ng/ml TGF-β1): tendency to increase IL-1β production in a dose-dependent manner
IL-1β production (effect in words) ([4]; 100 µM H2O2): tendency to increase IL-1β production in a dose-dependent manner
IL-1β production (effect in words) ([4]; standard conditions): tendency to increase IL-1β production in a dose-dependent manner
IL-6 ng/(ml* No. of cells from photo) ± SD ([5]; 1 µM, 34 ng/ml TGF-β1): 1027±36 ng/(ml* No. of cells from photo)
IL-6 ng/(ml* No. of cells from photo) ± SD ([5]; 1 µM, 100 µM H2O2): 1034±27 ng/(ml* No. of cells from photo)
IL-6 ng/(ml* No. of cells from photo) ± SD ([5]; 1 µM, Standard conditions): 612±31 ng/(ml* No. of cells from photo)
IL-6 ng/(ml* No. of cells from photo) ± SD ([5]; 10 µM, 34 ng/ml TGF-β1): 1244±58 ng/(ml* No. of cells from photo)
IL-6 ng/(ml* No. of cells from photo) ± SD ([5]; 10 µM, 100 µM H2O2): 1710±114 ng/(ml* No. of cells from photo)
IL-6 ng/(ml* No. of cells from photo) ± SD ([5]; 10 µM, Standard conditions): 751±93 ng/(ml* No. of cells from photo)
IL-6 production (effect in words) ([5]; 34 ng/ml TGF-β1): tendency to increase IL-6 production in a dose-dependent manner
IL-6 production (effect in words) ([5]; 100 µM H2O2): tendency to increase IL-6 production in a dose-dependent manner
IL-6 production (effect in words) ([5]; standard conditions): tendency to increase IL-6 production in a dose-dependent manner
Anti-fibrotic (prevention of scar formation, also from acne) [6, 8]: No
Cytoprotective (antioxidant, anti-inflammatory and anti-ageing; useful also in the treatment of acne) [6, 8]: No
Cytotoxic [6, 8]: No
Irritant [6, 8]: Yes (↑IL-6, ↑IL-1β)
Wound-healing [6, 8]: No
Anti-fibrotic (prevention of scar formation, also from acne) ([6]; Dose 10 µm): No
Cytoprotective (antioxidant, anti-inflammatory and anti-ageing; useful also in the treatment of acne) ([6]; Dose 10 µm): No
Cytotoxic ([6]; Dose 10 µm): No
Irritant ([6]; Dose 10 µm): Yes (↑IL-6, ↑IL-1β)
Wound-healing ([6]; Dose 10 µm): No
concentrations at which toxic (irritant) effects are shown ([6]; exposure for 24 hours): greater than or equal to 1 µM
% DPPH activity ([7]; 1 mM, 30 minutes): 114%
Anti-radical (skin protective) [7, 8]: No
Anti-radical (skin protective) ([7]; Dose 10 µm): No
